Assay results taken from US20230365643A1, “PEPTIDE, AND COSMETIC COMPOSITION AND PHARMACEUTICAL COMPOSITION COMPRISING SAME” (SEOUL NATIONAL UNIVERSITY HOSPITAL, priority 2020, published 2023).
Values after ≈ are worked out from the molar mass of the structure shown. Where a SMILES comes first, the peptide text is derived from it. [ ]: non-standard residue; d: D form.

Tests used:
[1] = Stability in mouse whole blood (LC-QTOF MS); assay type: in vitro ADME; settings: peptide 1 mg/ml; 0, 15, 30, 60, 120 minutes; compared to P5 control (FIG. 3)
Method: Mouse whole blood was treated with peptide (1 mg/ml) and reacted for 0, 15, 30, 60, and 120 minutes, followed by analyzing the peptides remaining as LC-QTOF MS.

[2] = Determination of solubility; assay type: physicochemical
Method: To 5 mg of each of the peptides synthesized by the above method, a small amount of water or butylene glycol was added to measure solubility.

C57BL/6 mice = test: Hair growth promoting efficacy in mice; assay type: in vivo, mouse; settings: lower back skin, once a day, after about 4 weeks; P5N 0.1 mM, P5 0.05 and 0.1 mM, MNX 3% (FIG. 11)
Description: It is known that all the hairs of a mouse go through a process in which the hair enters the resting phase at 7 to 8 weeks of age and is converted back to the growing phase. Accordingly, the effect of the peptide of the present invention on the growth phase inducing process was confirmed using C57BL/6 mice. Specifically, 3% of minoxidil (MNX), which is commonly used as a treatment for hair loss and hair growth, on the skin of the lower back of the mouse, the existing adiponectin-derived peptide […] NO: 2), […] and 0.1 mM), and the present peptide […] NO: 2)-NH2) were applied at 0.1 mM concentration, respectively, once a day. Thereafter, hair growth was investigated. As a result, in the group treated with the peptide of the present invention as in the positive controls, it was confirmed […], after about 4 weeks, a proportion of the region where hair was grown in the growth phase among the region where hair was first removed is increased (FIG. 11).

sensitive skin = test: Sensitive skin improvement, double-blind application study (lactate test, biopsy); assay type: in vivo, human; settings: for proportion of test group improved from sensitive skin to non-sensitive skin: 0.01%, 27 persons per group
Description: In order to classify patients with sensitive skin, a double-blind organ application study was executed by conducting the lactate puncture test (Contact Dermatitis 2010; 62: 137-49), which is the most widely used and known reliable test for diagnosis of sensitive skin (a total of 54 persons, the peptide of the present invention PSN: GLYYF(SEQ ID NO: 2)-NH2 (APNSN) 0.01% vs control (placebo), 27 persons per application group). From the volunteers who agreed to the biopsy (peptide PSN: GLYYF(SEQ ID NO: 2)-NH2 (APNSN) of the present invention 0.01% vs control material (placebo), 8 persons per application group), the skin tissues at the facial baseline and the skin tissues after 8 weeks application were obtained from total 4 sites (for 2 sites per each) by 2 mm punch. For the obtained skin tissues, quantitative PCR analysis and immunohistochemistry were performed for sensitive skin-related genes and markers including adiponectin. […] Further, at the second visit, it could be seen that 29.6% of the test group was improved from the sensitive skin to the non-sensitive skin. […] There was no significant difference between the above two groups (p=0.327, fisher's exact test). Further, at the 3rd visit, the initial sensitive skin improved to non-sensitive skin in 48.1% of the test group, whereas only 14.8% of the control improved to non-sensitive skin, which is the same as at the 2nd visit. […] Further, since the expression of adiponectin was reduced in the patients having sensitive skin, a change in adiponectin gene expression after APNSN treatment could be an important indicator of sensitivity improvement. Therefore, as a result of confirming the expression of adiponectin, the sub-signaling factor P-AMPK of adiponectin and the sensitivity inducing factor TRPV1 (FIG. 10) through biopsy, the expression adiponectin and P-AMPK was increased after application in the test group containing APNSN, whereas the expression of TRPV1 was decreased. […] On the other hand, there was no statistically significant change in the expression of adiponectin in the control after application of the control material.

[3] = water : butylene glycol mixture, Solvent H2O: BG, mixed solvent
[4] = Solvent BG (butylene glycol), single solvent
[5] = biopsy after application (FIG. 10)

Structure (SMILES): CC(C)C[C@H](N)C(=O)N[C@@H](Cc1ccc(O)cc1)C(=O)N[C@H](Cc1ccc(O)cc1)C(=O)N[C@@H](Cc1ccccc1)C(=O)O [Peptide P4-4, LYyF (SEQ ID NO: 1)] (H-LY[dY]F-OH; N-terminus assumed)
- stability (peptides remaining) [1]: improved stability

Structure (SMILES): CC(C)C[C@H](N)C(=O)N[C@@H](Cc1ccc(O)cc1)C(=O)N[C@@H](Cc1ccc(O)cc1)C(=O)N[C@H](Cc1ccccc1)C(=O)O [Peptide P4-5, LYYf (SEQ ID NO: 1)] (H-LYY[dF]-OH; N-terminus assumed)
- solubility ([2]; water, Solvent H2O, single solvent): 2500 µg/mL (≈ 4.13 mM)

Structure (SMILES): CC(C)C[C@@H](N)C(=O)N[C@@H](Cc1ccc(O)cc1)C(=O)N[C@@H](Cc1ccc(O)cc1)C(=O)N[C@@H](Cc1ccccc1)C(N)=O [Peptide P4-6, lYYF (SEQ ID NO: 1)-NH2] (H-[dL]YYF-NH2)
- solubility [2, 3]: 4000 µg/mL (≈ 6.63 mM)

Structure (SMILES): CC(C)C[C@H](N)C(=O)N[C@@H](Cc1ccc(O)cc1)C(=O)N[C@@H](Cc1ccc(O)cc1)C(=O)N[C@H](Cc1ccccc1)C(N)=O [Peptide P4-9, LYYf (SEQ ID NO: 1)-NH2] (H-LYY[dF]-NH2)
- solubility [2, 3]: 4000 µg/mL (≈ 6.63 mM)

Structure (SMILES): CC(C)C[C@H](NC(=O)CN)C(=O)N[C@@H](Cc1ccc(O)cc1)C(=O)N[C@@H](Cc1ccc(O)cc1)C(=O)N[C@@H](Cc1ccccc1)C(=O)O [Peptide P5, GLYYF (SEQ ID NO: 2), reference compound]
- solubility ([2]; ethanol : propylene glycol mixture, Solvent EtOH: PG (propylene glycol), mixed solvent): 1000 µg/mL (≈ 1.51 mM)
- proportion of the region where hair was grown in the growth phase (C57BL/6 mice): increased

Structure (SMILES): CC(C)C[C@@H](NC(=O)CN)C(=O)N[C@@H](Cc1ccc(O)cc1)C(=O)N[C@@H](Cc1ccc(O)cc1)C(=O)N[C@@H](Cc1ccccc1)C(=O)O [Peptide P5-1, GlYYF (SEQ ID NO: 2)]
- solubility [2, 4]: 3000 µg/mL (≈ 4.53 mM)

Structure (SMILES): CC(C)C[C@H](NC(=O)CN)C(=O)N[C@@H](Cc1ccc(O)cc1)C(=O)N[C@H](Cc1ccc(O)cc1)C(=O)N[C@@H](Cc1ccccc1)C(=O)O [Peptide P5-3, GLYyF (SEQ ID NO: 2)]
- solubility [2, 3]: 3000 µg/mL (≈ 4.53 mM)

Structure (SMILES): CC(C)C[C@H](NC(=O)CN)C(=O)N[C@@H](Cc1ccc(O)cc1)C(=O)N[C@@H](Cc1ccc(O)cc1)C(=O)N[C@H](Cc1ccccc1)C(=O)O [Peptide P5-4, GLYYf (SEQ ID NO: 2)]
- solubility [2, 4]: 3000 µg/mL (≈ 4.53 mM)

Structure (SMILES): CC(C)C[C@H](NC(=O)CN)C(=O)N[C@@H](Cc1ccc(O)cc1)C(=O)N[C@@H](Cc1ccc(O)cc1)C(=O)N[C@@H](Cc1ccccc1)C(N)=O [Peptide P5-5, GLYYF (SEQ ID NO: 2)-NH2]
- stability (peptides remaining) [1]: improved stability
- proportion of test group improved from sensitive skin to non-sensitive skin (sensitive skin; 2nd visit (4 weeks after application)): 29.6%
- proportion of test group improved from sensitive skin to non-sensitive skin (sensitive skin; 3rd visit (8 weeks after application)): 48.1%
- sensitive skin to non-sensitive skin in lactic acid test (sensitive skin; 2nd and 3rd visit (FIG. 9)): significantly improved
- expression of P-AMPK (sensitive skin; [5]): increased
- expression of TRPV1 (sensitive skin; [5]): decreased
- expression of adiponectin (sensitive skin; [5]): increased
- increase of expression of adiponectin compared to before application (sensitive skin; twice a day for 8 weeks, biopsy): more than 4 times
- proportion of the region where hair was grown in the growth phase (C57BL/6 mice): increased

Structure (SMILES): CC(C)C[C@H](NC(=O)CN)C(=O)N[C@@H](Cc1ccc(O)cc1)C(=O)N[C@H](Cc1ccc(O)cc1)C(=O)N[C@@H](Cc1ccccc1)C(N)=O [Peptide P5-8, GLYyF (SEQ ID NO: 2)-NH2]
- solubility [2, 4]: 3000 µg/mL (≈ 4.54 mM)
